According to patent publication US10047050B2, “3,4-di-substituted pyridine compound, methods of using and compositions comprising the same” (ARDEA BIOSCIENCES, INC., priority 2011, dated 2018):
Several values for one entry are separate records, joined by “and”; a condition that tells them apart may be missing. Equal values may be shown once.

System: serum uric acid
Assay: Single-dose Phase I clinical trial, serum uric acid (sUA) 0-72 hours post-dose
Type: in vivo, human
Conditions: for Absolute sUA concentration, Mean (3-8) / % sUA reduction (from baseline), Mean (3-8) / % sUA change (from baseline), Mean (3-8): mean of subjects 3-8; for % sUA reduction (from baseline) / % sUA change (from baseline): individual subjects 3-8
Procedure: A Phase 1, Randomized, Double-Blind, Placebo-Controlled Study to Evaluate Safety, Tolerability, Pharmacokinetics and Preliminary Food Effect of Single Doses of a URAT1 Inhibitor, in Healthy Adult Male Volunteers.
To assess safety, tolerability, pharmacokinetics and uricosuric effects after oral administration as single doses of a tablet formulation and the effect of food on bioavailability.
Subjects receive a single, oral dose of active or placebo, at the following doses:
Group 4: 20 mg (fasted) [sentinel dosing];
48 subjects in 6 dose groups, 8 subjects/group, are randomized 3:1 to receive active (6/group) or placebo (2/group). All study procedures are the same regardless of whether subject receives active or placebo. The total duration of subject participation, including screening period, is ˜2-4 weeks, and the total volume of blood collected from each subject during the entire study <500 mL, (less than typically collected during a volunteer blood donation).
5 mg and 20 mg, active and placebo, tablets packaged in 35 count HDPE bottles, stored at controlled room temperature (15-30° C.). Placebo tablets are designed to match the active tablets—identical size, form, taste, and color, and containing the same excipients. 2 mg was dosed as an oral solution.
Subjects dosed on the morning of Day 1 with ˜240 mL of room temp water.
Fasted: subjects are dosed after overnight fast >10 hours and remain fasted until >4 hours post-dose.
Fed: subjects fast overnight for >10 hours, then are dosed 30 mins after completing standard moderate fat breakfast (no high fructose corn syrup).
Serum samples are collected at:
PD samples are frozen (−20° C.) and stored; all samples from a given subject assayed in a single analytical run.

[1] = Group 3, 5 mg single oral dose, fed, 54 h post-dose
[2] = Group 3, 5 mg single oral dose, fed, 60 h post-dose
[3] = Group 3, 5 mg single oral dose, fed, 72 h post-dose
[4] = Group 4, 20 mg single oral dose, fasted, 0 h (baseline)
[5] = Group 4, 20 mg single oral dose, fasted, 6 h post-dose
[6] = Group 4, 20 mg single oral dose, fasted, 12 h post-dose
[7] = Group 4, 20 mg single oral dose, fasted, 24 h post-dose
[8] = Group 4, 20 mg single oral dose, fasted, 30 h post-dose
[9] = Group 4, 20 mg single oral dose, fasted, 36 h post-dose
[10] = Group 4, 20 mg single oral dose, fasted, 48 h post-dose
[11] = Group 4, 20 mg single oral dose, fasted, 54 h post-dose
[12] = Group 4, 20 mg single oral dose, fasted, 60 h post-dose
[13] = Group 4, 20 mg single oral dose, fasted, 72 h post-dose
[14] = Group 5, 20 mg single oral dose, fed, 0 h (baseline)
[15] = Group 5, 20 mg single oral dose, fed, 6 h post-dose
[16] = Group 5, 20 mg single oral dose, fed, 12 h post-dose
[17] = Group 5, 20 mg single oral dose, fed, 24 h post-dose
[18] = Group 5, 20 mg single oral dose, fed, 30 h post-dose
[19] = Group 5, 20 mg single oral dose, fed, 36 h post-dose
[20] = Group 5, 20 mg single oral dose, fed, 48 h post-dose
[21] = Group 5, 20 mg single oral dose, fed, 54 h post-dose
[22] = Group 5, 20 mg single oral dose, fed, 60 h post-dose
[23] = Group 5, 20 mg single oral dose, fed, 72 h post-dose
[24] = Group 6, 40 mg single oral dose, fasted, 0 h (baseline)
[25] = Group 6, 40 mg single oral dose, fasted, 6 h post-dose
[26] = Group 6, 40 mg single oral dose, fasted, 12 h post-dose
[27] = Group 6, 40 mg single oral dose, fasted, 24 h post-dose
[28] = Group 6, 40 mg single oral dose, fasted, 30 h post-dose
[29] = Group 6, 40 mg single oral dose, fasted, 36 h post-dose
[30] = Group 6, 40 mg single oral dose, fasted, 48 h post-dose
[31] = Group 6, 40 mg single oral dose, fasted, 54 h post-dose
[32] = Group 6, 40 mg single oral dose, fasted, 60 h post-dose
[33] = Group 6, 40 mg single oral dose, fasted, 72 h post-dose

SMILES: CC(C)(Sc1ccncc1-c1ccc(C#N)c2ccccc12)C(=O)O [2-((3-(4-cyanonaphthalen-1-yl)pyridin-4-yl)thio)-2-methylpropanoic acid]
- Absolute sUA concentration, Mean (3-8) (Group 3, 5 mg single oral dose, fed, 48 h post-dose): 4.5 mg/dL
- % sUA reduction (from baseline) [1]: −37.7% and −47.0% and −27.7% and −38.3% and −21.1% and −32.5%
- % sUA reduction (from baseline), Mean (3-8) [1]: −34.1%
- Absolute sUA concentration, Mean (3-8) [1]: 3.9 mg/dL
- % sUA reduction (from baseline) [2]: −27.5% and −28.8% and −30.8% and −20.0% and −24.6% and −35.0%
- % sUA reduction (from baseline), Mean (3-8) [2]: −27.8%
- Absolute sUA concentration, Mean (3-8) [2]: 4.3 mg/dL
- % sUA reduction (from baseline) [3]: −14.5% and −18.2% and −20.0% and −11.7% and −15.8% and −25.0%
- % sUA reduction (from baseline), Mean (3-8) [3]: −17.5%
- Absolute sUA concentration, Mean (3-8) [3]: 4.9 mg/dL
- % sUA reduction (from baseline), Mean (3-8) [4]: 0%
- Absolute sUA concentration, Mean (3-8) [4]: 6.8 mg/dL
- % sUA reduction (from baseline), Mean (3-8) [5]: −37.1%
- Absolute sUA concentration, Mean (3-8) [5]: 4.3 mg/dL
- % sUA reduction (from baseline), Mean (3-8) [6]: −41.2%
- Absolute sUA concentration, Mean (3-8) [6]: 4.0 mg/dL
- % sUA reduction (from baseline), Mean (3-8) [7]: −43.1%
- Absolute sUA concentration, Mean (3-8) [7]: 3.8 mg/dL
- % sUA reduction (from baseline), Mean (3-8) [8]: −47.4%
- Absolute sUA concentration, Mean (3-8) [8]: 3.6 mg/dL
- % sUA reduction (from baseline), Mean (3-8) [9]: −48.4%
- Absolute sUA concentration, Mean (3-8) [9]: 3.5 mg/dL
- % sUA reduction (from baseline), Mean (3-8) [10]: −39.0%
- Absolute sUA concentration, Mean (3-8) [10]: 4.1 mg/dL
- % sUA reduction (from baseline), Mean (3-8) [11]: −37.6%
- Absolute sUA concentration, Mean (3-8) [11]: 4.2 mg/dL
- % sUA reduction (from baseline), Mean (3-8) [12]: −37.6%
- Absolute sUA concentration, Mean (3-8) [12]: 4.2 mg/dL
- % sUA reduction (from baseline), Mean (3-8) [13]: −21.5%
- Absolute sUA concentration, Mean (3-8) [13]: 5.3 mg/dL
- % sUA reduction (from baseline), Mean (3-8) [14]: 0%
- Absolute sUA concentration, Mean (3-8) [14]: 7.1 mg/dL
- % sUA reduction (from baseline), Mean (3-8) [15]: −44.6%
- Absolute sUA concentration, Mean (3-8) [15]: 3.9 mg/dL
- % sUA reduction (from baseline), Mean (3-8) [16]: −56.5%
- Absolute sUA concentration, Mean (3-8) [16]: 3.1 mg/dL
- % sUA reduction (from baseline), Mean (3-8) [17]: −46.1%
- Absolute sUA concentration, Mean (3-8) [17]: 3.8 mg/dL
- % sUA reduction (from baseline), Mean (3-8) [18]: −48%
- Absolute sUA concentration, Mean (3-8) [18]: 3.7 mg/dL
- % sUA reduction (from baseline), Mean (3-8) [19]: −49.9%
- Absolute sUA concentration, Mean (3-8) [19]: 3.5 mg/dL
- % sUA reduction (from baseline), Mean (3-8) [20]: −37.6%
- Absolute sUA concentration, Mean (3-8) [20]: 4.4 mg/dL
- % sUA reduction (from baseline), Mean (3-8) [21]: −38.8%
- Absolute sUA concentration, Mean (3-8) [21]: 4.3 mg/dL
- % sUA reduction (from baseline), Mean (3-8) [22]: −40.3%
- Absolute sUA concentration, Mean (3-8) [22]: 4.2 mg/dL
- % sUA reduction (from baseline), Mean (3-8) [23]: −28.6%
- Absolute sUA concentration, Mean (3-8) [23]: 5.0 mg/dL
- % sUA change (from baseline) [24]: 0%
- % sUA change (from baseline), Mean (3-8) [24]: 0%
- Absolute sUA concentration, Mean (3-8) [24]: 6.6 mg/dL
- % sUA change (from baseline) [25]: −23.7% and −51.4% and −38.2% and −54.1% and −49.2% and −42.1%
- % sUA change (from baseline), Mean (3-8) [25]: −43.1%
- Absolute sUA concentration, Mean (3-8) [25]: 3.8 mg/dL
- % sUA change (from baseline) [26]: −40.8% and −68.9% and −52.9% and −63.9%
- % sUA change (from baseline), Mean (3-8) [26]: −59.3%
- Absolute sUA concentration, Mean (3-8) [26]: 2.7 mg/dL
- % sUA change (from baseline), Mean (3-8) [27]: −57.6%
- Absolute sUA concentration, Mean (3-8) [27]: 2.8 mg/dL
- % sUA change (from baseline), Mean (3-8) [28]: −60.6%
- Absolute sUA concentration, Mean (3-8) [28]: 2.6 mg/dL
- % sUA change (from baseline), Mean (3-8) [29]: −61.4%
- Absolute sUA concentration, Mean (3-8) [29]: 2.5 mg/dL
- % sUA change (from baseline) [30]: −53.9% and −50.0% and −48.5% and −37.7% and −55.9% and −45.6%
- % sUA change (from baseline), Mean (3-8) [30]: −48.6%
- Absolute sUA concentration, Mean (3-8) [30]: 3.4 mg/dL
- % sUA change (from baseline) [31]: −56.6% and −47.3% and −50.0% and −39.3% and −54.2% and −40.4%
- % sUA change (from baseline), Mean (3-8) [31]: −48.0%
- Absolute sUA concentration, Mean (3-8) [31]: 3.4 mg/dL
- % sUA change (from baseline) [32]: −56.6% and −50.0% and −48.5% and −39.3% and −52.5% and −36.8%
- % sUA change (from baseline), Mean (3-8) [32]: −47.3%
- Absolute sUA concentration, Mean (3-8) [32]: 3.4 mg/dL
- % sUA change (from baseline) [33]: −40.8% and −31.1% and −33.8% and −19.7% and −30.5% and −19.3%
- % sUA change (from baseline), Mean (3-8) [33]: −29.2%
- Absolute sUA concentration, Mean (3-8) [33]: 4.6 mg/dL
